pIC50: −log10 of the molar value. Read-outs that look alike come from different tables or passages of the source.
Assays:
[1] = In vitro human microsomal stability assay; type: in vitro ADME; conditions: for HUMAN MICROSOMAL STABILITY (% REMAINING AFTER 30 MINUTES): microsomes, 0.5 h, 0.5 μM, pH 7.4
In short: (§1)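 Metabolic stability was followed in NADPH-supplemented incubations at 37° C., using microsomes prepared from human liver or from Sprague-Dawley rat liver.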

human TRPV3 = target: T1, human TRPV3 (Homo sapiens, UniProt Q8NET8); test: In vitro antagonism of recombinant human TRPV3 activation (FLIPR Tetra calcium assay); type: cell-based; conditions: HEK293 cells stably expressing human TRPV3, agonist 2-APB at 80 μM
T1 construct: expressed in transfected cells
T1 sequence (Q8NET8 1-790): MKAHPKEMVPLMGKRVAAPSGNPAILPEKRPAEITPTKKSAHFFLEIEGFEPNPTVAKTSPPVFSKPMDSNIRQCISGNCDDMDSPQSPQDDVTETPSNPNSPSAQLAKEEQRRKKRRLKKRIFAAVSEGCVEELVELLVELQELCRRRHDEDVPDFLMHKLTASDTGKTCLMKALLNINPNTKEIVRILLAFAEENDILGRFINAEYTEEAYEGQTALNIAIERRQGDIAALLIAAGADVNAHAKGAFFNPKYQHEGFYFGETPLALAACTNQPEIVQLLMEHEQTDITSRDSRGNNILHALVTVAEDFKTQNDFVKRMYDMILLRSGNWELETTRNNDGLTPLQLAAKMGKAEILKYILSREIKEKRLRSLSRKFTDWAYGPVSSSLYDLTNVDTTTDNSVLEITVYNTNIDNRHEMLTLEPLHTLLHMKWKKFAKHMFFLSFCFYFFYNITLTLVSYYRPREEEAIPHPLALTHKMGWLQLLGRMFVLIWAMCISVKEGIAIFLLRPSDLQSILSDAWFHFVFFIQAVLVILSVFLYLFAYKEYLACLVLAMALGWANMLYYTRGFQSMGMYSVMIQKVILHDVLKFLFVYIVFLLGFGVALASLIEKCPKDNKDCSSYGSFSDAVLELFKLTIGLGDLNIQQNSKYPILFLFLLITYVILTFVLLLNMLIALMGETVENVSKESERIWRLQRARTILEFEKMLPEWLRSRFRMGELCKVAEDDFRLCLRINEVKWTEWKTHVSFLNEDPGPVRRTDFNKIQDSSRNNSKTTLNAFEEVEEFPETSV
In short: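 Calcium flux read over a 10 min run: compound added at 10 s to Calcium-4-loaded human TRPV3-HEK293 cells, agonist 2-APB (80 μM, its EC80) after 3 min. IC50 derived from peak-minus-baseline signal as percentage of uninhibited 2-APB response, typically averaged over at least two runs.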

[2] = system: chronic constriction injury (CCI) model of neuropathic pain; test: In vivo chronic constriction injury (CCI) model of neuropathic pain, mechanical allodynia (von Frey); parameters: species or system CD1 mice; conditions: 100 mg/kg oral dose, mechanical allodynia 1 hour after dosing, CCI mice, average of eight mice, vehicle 0%, control 100%; for inhibition in vivo at 100 mg/kg: Mus musculus, po, 1 h, read-out: % EFFECT
Experimental: Test compounds were evaluated for analgesic effect in an in vivo chronic constriction injury (CCI) model of neuropathic pain. CD1 mice (Charles River) were used for these studies. Prior to testing (2-4 weeks) animals underwent a surgical procedure consisting of approximately 3 loose ligatures around the sciatic nerve. Following sterilization procedures, under isofluorane anesthetic, a 1.5 cm incision was made dorsal to the pelvis. The biceps femoris and gluteous superficialis (right side) were separated and the sciatic nerve exposed, isolated, and 2-4 loose ligatures (5-0 chromic gut) with less than 1 mm spacing were placed around it. Following hemostasis, the wound was sutured (layer of muscle closed with 5-0 nylon suture, and the wound closed with surgical staples) and coated with iodine. The mice were allowed to recover on a warming plate and were returned to their home cages (soft bedding) when able to walk on their own.
Two to four weeks after the surgery, test compound was administered orally (PO) in these mice, and mechanical allodynia was evaluated 1 hour after oral dosing where the threshold to response was assessed using calibrated von Frey monofilaments. The von Frey monofilaments were applied to the hind paw at increasing forces until the animal responded by lifting its paw. Normally, the force of the von Frey monofilament was innocuous and only in the altered state (allodynia or hyperalgesia) did the animals respond to this stimulation. […] At the end of the experiment, after behavioral testing, plasma (and in some instances brain tissue) was taken for exposure analysis.
Each test compound was evaluated in eight different mice. The data reported in Table 3 represent the average value of the approximate percent effect of each compound in relieving neuropathic pain in mice receiving 100 mg/kg oral dose of the test compound. The grams of force needed to elicit a withdrawal response from the injured mouse that was challenged with vehicle was assigned a 0% effect, while the grams of force needed to elicit a withdrawal response from the control was given a 100% effect.

[3] = In vitro rat microsomal stability assay; type: in vitro ADME, rat (Sprague-Dawley); conditions: for RAT MICROSOMAL STABILITY (% REMAINING AFTER 30 MINUTES): Sprague-Dawley, microsomes, 0.5 h, 0.5 μM, pH 7.4
In short: as §1

[4] = actual measured value shown parenthetically, in most cases average of at least two runs, read-out: IC50
[5] = reported range, read-out: IC50 (range class)

SMILES	HUMAN […] (% REMAINING AFTER 30 MINUTES) ([1]; human liver microsomes, 0.5 μM substrate, 0.25 mg/mL microsomal protein, pH 7.4, 37° C., NADPH, 30 minutes)	pIC50 (human TRPV3; [4])	pIC50 (human TRPV3; [5])	% EFFECT [2]	RAT […] (% REMAINING AFTER 30 MINUTES) ([3]; rat liver microsomes (Sprague-Dawley), 0.5 μM substrate, 0.25 mg/mL microsomal protein, pH 7.4, 37° C., NADPH, 30 minutes)	HUMAN MICROSOMAL STABILITY (% REMAINING AFTER 30 MINUTES) [1]	RAT MICROSOMAL STABILITY (% REMAINING AFTER 30 MINUTES) [3]	inhibition in vivo at 100 mg/kg [2]
C[C@]1(O)C[C@](c2cc(C(F)(F)F)ccn2)([C@H](O)c2ccccn2)C1 (relative stereo) [Example 285, cis-3-[(S)-hydroxy(pyridin-2-yl)methyl]-1-methyl-3-[4-(trifluoromethyl)-pyridin-2-yl]cyclobutanol]	83%	6.00	6.00 to 6.30	59%	69%			
OC1CC(c2ccc(Cl)c(Cl)c2)(C(O)c2ccccn2)C1 (single isomer, unassigned) [Example 118]		6.66		89%		>85%	74%	
OC1CC(c2ccc(Cl)c(Cl)c2)(C(O)c2ccccn2)C1 (single isomer, unassigned) [Example 119]		6.24		16%		>85%	69%	
CC1(O)CC(c2ccc(OC(F)(F)F)cc2)(C(O)c2ccccn2)C1 (single isomer, unassigned) [Example 134]		6.07				78%	72%	98%
CC1(O)CC(c2ccc(C(F)(F)F)cc2)(C(O)c2ccccn2)C1 (single isomer, unassigned) [Example 232]		5.71				80%	67%	65%
CC1(O)CC(c2cccc(C(F)(F)F)c2)(C(O)c2ccccn2)C1 (single isomer, unassigned) [Example 236]		6.12				54%	41%	33%
O[C@H](c1ccccn1)C1(c2ccc(OC(F)(F)F)cc2)CC(F)(F)C1 [Example 128, (S)-{3,3-difluoro-1-[4-(trifluoromethoxy)phenyl]cyclobutyl}(pyridin-2-yl)-methanol]		6.96				59%	67%	78%
O[C@H](c1ccccn1)[C@]1(c2ccc(Cl)c(Cl)c2)CCO1 [Example 136, (R)-[(2R)-2-(3,4-dichlorophenyl)oxetan-2-yl](pyridin-2-yl)methanol]		6.41				24%	9.5%	52%
OC1CC(c2ccc(C(F)(F)F)cc2)(C(O)c2ccccn2)C1 [Example 201, trans-3-[(S)-hydroxy(pyridin-2-yl)methyl]-3-[4-(trifluoromethyl)phenyl]-cyclobutanol]		5.22				73%	>85%	64%
CN[C@@H]1CCC[C@H]1[C@@H](O)C1(c2ccc(Cl)c(Cl)c2)CCC1 [Example 228, (R)-[1-(3,4-dichlorophenyl)cyclobutyl][(1R,2R)-2-(methylamino)-cyclopentyl]methanol]		5.60				70%	25%	52%
C[C@]1(O)C[C@@](c2ccc(OC(F)(F)F)cc2)([C@@H](O)c2ccccn2)C1 [Example 250, cis-3-[(R)-hydroxy(pyridin-2-yl)methyl]-1-methyl-3-[4-(trifluoromethoxy)-phenyl]cyclobutanol]		5.03				70%	70%	57%
C[C@]1(O)C[C@@](c2cccc(OC(F)(F)F)c2)([C@H](O)c2ccccn2)C1 [Example 262, cis-3-[(S)-hydroxy(pyridin-2-yl)methyl]-1-methyl-3-[3-(trifluoromethoxy)-phenyl]cyclobutanol]		6.20				48%	57%	45%
OC1CC(c2cc(C(F)(F)F)ccn2)(C(O)c2ccccn2)C1 [Example 283, trans-3-[(S)-hydroxy(pyridin-2-yl)methyl]-3-[4-(trifluoromethyl)pyridin-2-yl]cyclobutanol]		6.16				>85%	>85%	49%
OC(c1ccccn1)C1(c2nc3ccc(F)cc3s2)CCC1 (stereo not drawn) [Example 300, [1-(6-fluoro-1,3-benzothiazol-2-yl)cyclobutyl](pyridin-2-yl)methanol]		5.31				35%	0.020%	
OC(c1ccccn1)C1(c2nc3ccc(Cl)cc3o2)CCC1 (stereo not drawn) [Example 301, [1-(6-chloro-1,3-benzoxazol-2-yl)cyclobutyl](pyridin-2-yl)methanol]		5.22				57%	22%	
OC1CC(c2cncc(C(F)(F)F)c2)(C(O)c2ccccn2)C1 [Example 303, cis-3-[(S)-hydroxy(pyridin-2-yl)methyl]-3-[5-(trifluoromethyl)pyridin-3-yl]cyclobutanol]		6.28				80%	32%	
OC1CC(c2cncc(C(F)(F)F)c2)(C(O)c2ccccn2)C1 [Example 304, trans-3-[(S)-hydroxy(pyridin-2-yl)methyl]-3-[5-(trifluoromethyl)pyridin-3-yl]cyclobutanol]		6.60				>85%	44%	
OC1CC(c2ccnc(C(F)(F)F)c2)(C(O)c2ccccn2)C1 [Example 305, cis-3-[(S)-hydroxy(pyridin-2-yl)methyl]-3-[2-(trifluoromethyl)pyridin-4-yl]-cyclobutanol]		6.54				63%	49%	
CC1(O)CC(c2ccc(OC(F)(F)F)cc2)(C(O)c2ncccn2)C1 [Example 310, trans-3-((S)-hydroxy(pyrimidin-2-yl)methyl)-1-methyl-3-(4-(trifluoromethoxy)phenyl)cyclobutanol]		< 4.70	< 4.70			>85%	>85%	
